Where “and” joins values, the source holds several entries; their conditions need not be identical. Equal entries are not always repeated. Where two headings read alike, the source gives them in different places.
How the values were obtained:
Type in all cases: cell-based
[1] = tested on: TNF-α release from microglia; experiment: TNF-α release from LPS/IFNγ stimulated microglia, TNF-α ELISA (Example 11); details: for % inhibition: individual replicates; for TNF-α ELISA raw reading (not NO; the printed μM unit is unsupported): 3 replicates; for inhibition at 50 µM: Microglia
Experimental: Also, bis- and tris-dihydroxyaryl compound's ability to inhibit NO release strongly supports their interference with the inflammatory cascade and utlimately inhibition of inflammation. Microglia cells were plated at 1×10^5 cells/ml into 96 well plates. At day three, they were treated with 50 μM bis- and tris-dihydroxyaryl compound for 1 hour and then exposed to 10 μg/ml LPS+10 ng/ml IFNγ for 24 hours. 10 μl of media was removed and stored at −80° until TNF-α ELISA assays were performed. Samples were diluted 1:50 before running the TNF-α ELISA (kit commercially available from Sigma).

[2] = tested on: EOC 13.31 microglia cells; experiment: NO release inhibition in LPS/IFNγ stimulated microglia, concurrent treatment, Griess reaction at 24 hours (Example 6); details: 24 hours; for NO release, Avg: 50 μM; for inhibition at 50 µM: Microglia
Experimental: The purpose of this experiment was to screen compounds 3, 4, 21, 26, 51, 52, 66, and 78 for their ability to inhibit Nitric oxide release from microglia. […] EOC 13.31 microglia cells were plated into 96 well plates for 24 hours. Confluent cells were treated with 50 μM of the bis- and tris-dihydroxyaryl compounds either with or without stimulation at 1 pg/ml LPS, and 1 ng/ml IFNγ. NO release was measured at 24 hours using the Griess reaction which is a spectrophotometric measure of NO release (reagents from Promega).

[3] = tested on: EOC 13.31 microglia cells; experiment: Inhibition of NO release from microglia following 24 hours pretreatment (Example 10); details: for inhibition at 50 µM: Microglia
Experimental: This experiment was designed to determine if pretreatment for 24 hours with bis- and tris-dihydroxyaryl compounds changes NO inhibition previously observed with concurrent exposure of bis- and tris-dihydroxyaryl compounds. […] This study seeks to determine if pretreatment with bis- and tris-dihydroxyaryl compounds increases NO release inhibition. EOC 13.31 microglia cells were plated at 1×10^6 cells/ml in 96 well plates. After 48 hours, confluent cells were exposed to 50 μM compound (stock 10 mM in DMSO) prepared in fresh cell culture media. After 24 hours, 10 μg/ml LPS and 10 ng/ml IFNγ was added to wells directly without a media change. Cells were incubated for a further 48 hours and nitric oxide release was measured using the Griess Reaction.

microglia = experiment: Ranking of NO release inhibition (Example 12); details: Microglia, ranking table
Description: The bis- and tris-dihydroxyaryl compounds were ranked in order of effectiveness for the inhibition of NO release as set out in Table 8.

[4] = tested on: EOC 13.31 microglial cells; experiment: NO release inhibition screen in LPS/IFNγ stimulated microglia, Griess reaction at 48 hours (Example 7); details: for μM NO release Avg / % inhibition / inhibition at 50 µM: 50 uM + 10 μg/ml LPS/10 ng/ml IFNγ, 48 hours; for % inhibition: 50 µM; for inhibition at 50 µM: Microglia, 48 h
Experimental: In this experiment, additional bis- and tris-dihydroxyaryl compounds were screened for their ability to inhibit nitric oxide release from microglial cells. Microglial cells stimulated with LPS/IFNγ release nitric oxide. […] This is a continuation of screening experiments. EOC 13.31 microglial cells were plated into 96 well plates. At 24 hours and at confluency, cells were treated with 10 μg/ml LPS/10 ng/ml IFNγ+50 uM bis- and tris-dihydroxyaryl compounds.

[5] = 50 uM compound, TNF-α release, 10 ug LPS and 10 ng IFNγ, 24 hours
[6] = 50 uM compound, TNF-α release, 10 ug LPS and 10 ng IFNγ, 24 hours, 50 µM
[7] = 50 uM compound, 10 ug LPS and 10 ng IFNγ, 24 hours
[8] = 50 uM pretreatment 24 hours, then LPS/IFNγ 48 hours, single replicates
[9] = 50 uM pretreatment 24 hours, then LPS/IFNγ 48 hours, read-out: Avg % Inhibition
[10] = 50 uM pretreatment 24 hours, then LPS/IFNγ 48 hours, single replicates, read-out: % inhibition
[11] = single replicates, read-out: % inhibition
[12] = 24 h, 50 uM compound, TNF-α release, 10 ug LPS and 10 ng IFNγ, 24 hours, read-out: Avg % Inhibition
[13] = 50 μM pretreatment, read-out: inhibition of NO release following pretreatment

SMILES	Avg % Inhibition [1, 5] [%]	% inhibition [1, 6]	TNF-α ELISA raw reading (not NO; the printed μM unit is unsupported) [1, 7]	inhibition at 50 µM (microglia) [%]	μM NO release Avg [4] [µM]	% inhibition ([4]; single replicates)	inhibition at 50 µM ([4]; read-out: Avg. % Inhibition) [%]	also measured
O=C(NCc1ccc(O)c(O)c1)C(=Cc1ccc(O)c(O)c1)NC(=O)c1ccc(O)c(O)c1 [Compound 21-2]	−23.18	−25.92% and −23.45% and −20.16%	0.924 µM and 0.904 µM and 0.939 µM	–	–	–	–	–
O=C(NCc1ccc(O)c(O)c1)Nc1ccc(O)c(O)c1 [Compound 77-1]	2.58	4.66% and 4.16% and −1.10%	0.756 µM and 0.788 µM and 0.753 µM	–	–	–	–	–
O=C(Nc1ccc(O)c(O)c1)c1ccc(O)c(O)c1 [Compound 51, 3,4-dihydroxybenzoic acid 3,4-dihydroxyanilide]	–	–	–	–	–	–	–	NO release, Avg ([2]; Compound + LPS/IFNγ): 20.6633 µM; NO release, Avg ([2]; Compound Only (without LPS/IFNγ)): 1.2500 µM; inhibition at 50 µM ([2]; Compound + LPS/IFNγ, read-out: % inhibition of NO release): -11%; inhibition at 50 µM ([2]; Table 2 summary, LPS/IFNγ, read-out: % Inhibition (summary of inhibition of NO release)): -11%; % inhibition [3, 8]: 47.81% and 59.20%; inhibition at 50 µM [3, 9]: 56%; inhibition at 50 µM [3, 10]: 61.1%
Oc1ccc(CCc2ccc(O)c(O)c2)cc1O [Compound 4-3]	89.89	88.39% and 91.14% and 90.14%	0.177 µM and 0.185 µM and 0.199 µM	–	–	–	–	inhibition of TNF-α release ([1]; 50 μM for 1 hour, then 10 μg/ml LPS + 10 ng/ml IFNγ for 24 hours): 89%
Oc1ccc(CN2CCN(Cc3ccc(O)c(O)c3)CC2)cc1O [Compound 9, 1,4-bis(3,4-dihydroxybenzyl)piperazine]	–	–	–	3	26.299	−0.57% (2×) and 9.14%	2.66	–
O=C(Nc1ccc(O)c(O)c1)c1ccc(O)c(O)c1 [Compound 51-1]	–	−17.57% and −12.94% and −13.42%	0.880 µM and 0.883 µM and 0.909 µM	–	–	–	–	Avg % Inhibition [1, 6]: −14.64%
O=C(C=Cc1ccc(O)c(O)c1)NCc1ccc(O)c(O)c1 [Compound 61, 3,4-dihydroxycinnamic acid 3,4-dihydroxybenzylamide]	–	−3.40% and −17.04% and −7.51%	–	21	21.285	19.18% and 24.19%	21.2	inhibition of NO release, in words ([4]; 50 uM, LPS/IFNγ stimulated microglia): effective inhibitors of NO release; inhibition at 50 µM [4, 11]: 20.3%; inhibition at 50 µM [1, 12]: -9.32%
CN1C2CCC1C(Cc1ccc(O)c(O)c1)C(=O)C2Cc1ccc(O)c(O)c1 (stereo not drawn) [Compound 19, 2,4-bis(3,4-dihydroxybenzyl)-3-tropinone]	–	–	–	4	25.828	5.75% and 3.45%	4.41	inhibition at 50 µM [3, 13]: > 75%; inhibition at 50 µM [4, 11]: 4.02%
C[C@@H]1C[C@H]2[C@@H]3CCC4=CC(=O)C=C[C@]4(C)[C@@]3(F)[C@@H](O)C[C@]2(C)[C@@]1(O)C(=O)CO [Dexamethasone, reference compound]	–	–	–	–	–	–	–	inhibition at 50 µM ([1]; 50 μM for 1 hour, then 10 μg/ml LPS + 10 ng/ml IFNγ for 24 hours, read-out: inhibition of TNF-α release): 72.4%
CN1C2CCC1C(Cc1ccc(O)c(O)c1)C(=O)C2Cc1ccc(O)c(O)c1 (stereo not drawn) [Compound 19-2]	9.42	7.78% and 8.44% and 12.05%	0.730 µM and 0.708 µM and 0.734 µM	–	–	–	–	Avg % Inhibition ([3]; 50 uM pretreatment 24 hours, then LPS/IFNγ 48 hours): 82.93%; % inhibition [3, 8]: 73.11% and 91.80% and 83.87%; OD values (printed under head μM NO release) [3, 8]: 0.135 and 0.161 and 0.195; μM NO release [3, 8]: 1.620 µM and 3.188 µM and 5.313 µM
O=C(Nc1ccc(O)c(O)c1)Nc1ccc(O)c(O)c1 [Compound 76-2]	−9.81	−8.66% and −11.12% and −9.64%	0.849 µM and 0.840 µM and 0.834 µM	–	–	–	–	–
O=C(c1ccc(O)c(O)c1)N1CCN(C(=O)c2ccc(O)c(O)c2)CC1 [Compound 23, 1,4-bis(3,4-dihydroxybenzoyl)piperazine]	–	−23.78% and −15.89% and −17.96%	–	13	23.394	13.60% and 9.70%	13.4	inhibition at 50 µM [4, 11]: 16.9%; inhibition at 50 µM [1, 12]: -19.2%
O=C(NCc1ccc(O)c(O)c1)Nc1ccc(O)c(O)c1 [Compound 77, 1-(3,4-dihydroxyphenyl)-3-(3,4-dihydroxybenzyl)urea]	–	–	–	12	24.398	9.89%	12.1	% inhibition [3, 8]: 99.39%; inhibition at 50 µM [3, 9]: 96.8%; inhibition at 50 µM [3, 10]: 91.8%; inhibition at 50 µM [3, 13]: > 75%; inhibition at 50 µM [4, 11]: 14.2%
Cc1nc(-c2ccc(O)c(O)c2)cc(-c2ccc(O)c(O)c2)c1C#N [Compound 8, 4,6-bis(3,4-dihydroxyphenyl)-3-cyano-2-methylpyridine]	–	–	–	92	25.265	8.03% and 2.30% and 9.14%	6.49	–
O=C(Nc1ccc(O)c(O)c1)Nc1ccc(O)c(O)c1 [Compound 76, 1,3-bis(3,4-dihydroxyphenyl)urea]	–	–	–	14	23.745	11.52% and 12.60%	14.4	% inhibition [3, 8]: 75.64% and 78.81%; inhibition at 50 µM [3, 9]: 76.3%; inhibition at 50 µM [3, 10]: 74.4%; inhibition at 50 µM [3, 13]: > 75%; inhibition at 50 µM [4, 11]: 19.1%
O=C(CCC(=O)Nc1ccc(O)c(O)c1)Nc1ccc(O)c(O)c1 [Compound 66-2]	−13.70	−14.08% and −17.70% and −9.32%	0.889 µM and 0.838 µM and 0.867 µM	–	–	–	–	–
Oc1ccc(Cc2ccc(O)c(O)c2)cc1O [Compound 3-2]	29.41	28.11% and 32.65% and 27.48%	0.593 µM and 0.627 µM and 0.623 µM	–	–	–	–	–
O=C(Nc1ccc(O)c(O)c1)c1ccc(O)c(O)c1 [Compound 51-4]	–	−20.13% and −17.25% and −11.34%	0.907 µM and 0.870 µM and 0.925 µM	–	–	–	–	Avg % Inhibition [1, 6]: −16.24%
